Assay results taken from US12077503B2, “Substituted cyclic amides and their use as herbicides” (FMC CORPORATION, priority 2015, dated 2024).

How the values were obtained:
Type in all cases: in vivo
[1] = test system: redroot pigweed (Amaranthus retroflexus); assay: Test G Post-Emergence Protocol; details: Amaranthus retroflexus, post-emergence, 312 h, read-out: Pigweed, Redroot damage rating; for pest or weed control at 15.625 g/ha: 15.625 g ai/ha, evaluated after 13 days (100=total damage to plant; 0=no damage to plant); for pest or weed control at 62.5 g/ha: 62.5 g ai/ha; for pest or weed control at 62.5 g/ha / pest or weed control at 250 g/ha: evaluated after 13 days, 100=total damage to plant, 0=no damage to plant; for pest or weed control at 250 g/ha: 250 g ai/ha
Outline: (§1)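 Seedlings grown 8 days in soil in a glasshouse (24/16 °C day/night, 14 h light, 65% humidity) were sprayed post-emergence with compound in acetone/water 50:50 plus 0.5% Tween 20 at 15.625, 62.5 or 250 g/ha. Damage was scored after 13 days on a 0–100 scale (100 = total damage).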

[2] = test system: velvetleaf (Abutilon theophrasti); assay: Test G Post-Emergence Protocol; details: Abutilon theophrasti, post-emergence, 312 h, read-out: Velvetleaf damage rating; for pest or weed control at 15.625 g/ha: 15.625 g ai/ha, evaluated after 13 days (100=total damage to plant; 0=no damage to plant); for pest or weed control at 62.5 g/ha: 62.5 g ai/ha; for pest or weed control at 62.5 g/ha / pest or weed control at 250 g/ha: evaluated after 13 days, 100=total damage to plant, 0=no damage to plant; for pest or weed control at 250 g/ha: 250 g ai/ha
Outline: as §1

corn (Zea mays) [3] = assay: Test G Post-Emergence Protocol; details: Zea mays, post-emergence, 312 h, read-out: Corn damage rating; for plant injury at 15.625 g/ha: 15.625 g ai/ha, evaluated after 13 days (100=total damage to plant; 0=no damage to plant); for plant injury at 62.5 g/ha: 62.5 g ai/ha; for plant injury at 62.5 g/ha / plant injury at 250 g/ha: evaluated after 13 days, 100=total damage to plant, 0=no damage to plant; for plant injury at 250 g/ha: 250 g ai/ha
Outline: as §1

[4] = test system: barnyardgrass (Echinochloa crus-galli); assay: Test G Post-Emergence Protocol; details: Echinochloa crus-galli, post-emergence, 312 h, read-out: Barnyardgrass damage rating; for pest or weed control at 15.625 g/ha: 15.625 g ai/ha, evaluated after 13 days (100=total damage to plant; 0=no damage to plant); for pest or weed control at 62.5 g/ha: 62.5 g ai/ha; for pest or weed control at 62.5 g/ha / pest or weed control at 250 g/ha: evaluated after 13 days, 100=total damage to plant, 0=no damage to plant; for pest or weed control at 250 g/ha: 250 g ai/ha
Outline: as §1

[5] = test system: ivy-leaved morning glory (Ipomoea hederacea); assay: Test G Post-Emergence Protocol; details: Ipomoea, post-emergence, 312 h, read-out: Morningglory, Ivy-leaved damage rating; for pest or weed control at 15.625 g/ha: 15.625 g ai/ha, evaluated after 13 days (100=total damage to plant; 0=no damage to plant); for pest or weed control at 62.5 g/ha: 62.5 g ai/ha; for pest or weed control at 62.5 g/ha / pest or weed control at 250 g/ha: evaluated after 13 days, 100=total damage to plant, 0=no damage to plant; for pest or weed control at 250 g/ha: 250 g ai/ha
Outline: as §1

[6] = test system: giant foxtail (Setaria faberi); assay: Test G Post-Emergence Protocol; details: Setaria faberi, post-emergence, 312 h, read-out: Foxtail, Giant damage rating; for pest or weed control at 15.625 g/ha: 15.625 g ai/ha, evaluated after 13 days (100=total damage to plant; 0=no damage to plant); for pest or weed control at 62.5 g/ha: 62.5 g ai/ha; for pest or weed control at 62.5 g/ha / pest or weed control at 250 g/ha: evaluated after 13 days, 100=total damage to plant, 0=no damage to plant; for pest or weed control at 250 g/ha: 250 g ai/ha
Outline: as §1

[7] = test system: redroot pigweed (Amaranthus retroflexus); assay: Test G Pre-Emergence Protocol; details: Amaranthus retroflexus, pre-emergence, 312 h, evaluated after 13 days; for pest or weed control at 15.625 g/ha: 15.625 g ai/ha; for pest or weed control at 15.625 g/ha / pest or weed control at 250 g/ha: read-out: Pigweed, Redroot damage rating (100=total damage to plant; 0=no damage to plant); for pest or weed control at 62.5 g/ha: 62.5 g ai/ha, 100=total damage to plant, 0=no damage to plant, read-out: Pigweed, Redroot damage rating; for pest or weed control at 250 g/ha: 250 g ai/ha
Outline: (§2)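 Pre-emergence spray, 15.625/62.5/250 g/ha, vehicle acetone:water 50:50 + 0.5% Tween 20, applied 1 d after sowing. Glasshouse 24/16° C, 14 h light, 65% RH, watered twice daily. Visual damage rating at 13 d, 0–100 scale.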

[8] = test system: velvetleaf (Abutilon theophrasti); assay: Test G Pre-Emergence Protocol; details: Abutilon theophrasti, pre-emergence, 312 h, evaluated after 13 days; for pest or weed control at 15.625 g/ha: 15.625 g ai/ha; for pest or weed control at 15.625 g/ha / pest or weed control at 250 g/ha: read-out: Velvetleaf damage rating (100=total damage to plant; 0=no damage to plant); for pest or weed control at 62.5 g/ha: 62.5 g ai/ha, 100=total damage to plant, 0=no damage to plant, read-out: Velvetleaf damage rating; for pest or weed control at 250 g/ha: 250 g ai/ha
Outline: as §2

corn (Zea mays) [9] = assay: Test G Pre-Emergence Protocol; details: Zea mays, pre-emergence, 312 h, evaluated after 13 days; for plant injury at 15.625 g/ha: 15.625 g ai/ha; for plant injury at 15.625 g/ha / plant injury at 250 g/ha: read-out: Corn damage rating (100=total damage to plant; 0=no damage to plant); for plant injury at 62.5 g/ha: 62.5 g ai/ha, 100=total damage to plant, 0=no damage to plant, read-out: Corn damage rating; for plant injury at 250 g/ha: 250 g ai/ha
Outline: as §2

[10] = test system: barnyardgrass (Echinochloa crus-galli); assay: Test G Pre-Emergence Protocol; details: Echinochloa crus-galli, pre-emergence, 312 h, evaluated after 13 days; for pest or weed control at 15.625 g/ha: 15.625 g ai/ha; for pest or weed control at 15.625 g/ha / pest or weed control at 250 g/ha: read-out: Barnyardgrass damage rating (100=total damage to plant; 0=no damage to plant); for pest or weed control at 62.5 g/ha: 62.5 g ai/ha, 100=total damage to plant, 0=no damage to plant, read-out: Barnyardgrass damage rating; for pest or weed control at 250 g/ha: 250 g ai/ha
Outline: as §2

[11] = test system: ivy-leaved morning glory (Ipomoea hederacea); assay: Test G Pre-Emergence Protocol; details: Ipomoea, pre-emergence, 312 h, evaluated after 13 days; for pest or weed control at 15.625 g/ha: 15.625 g ai/ha; for pest or weed control at 15.625 g/ha / pest or weed control at 250 g/ha: read-out: Morningglory, Ivy-leaved damage rating (100=total damage to plant; 0=no damage to plant); for pest or weed control at 62.5 g/ha: 62.5 g ai/ha, 100=total damage to plant, 0=no damage to plant, read-out: Morningglory, Ivy-leaved damage rating; for pest or weed control at 250 g/ha: 250 g ai/ha
Outline: as §2

[12] = test system: giant foxtail (Setaria faberi); assay: Test G Pre-Emergence Protocol; details: Setaria faberi, pre-emergence, 312 h, evaluated after 13 days; for pest or weed control at 15.625 g/ha: 15.625 g ai/ha; for pest or weed control at 15.625 g/ha / pest or weed control at 250 g/ha: read-out: Foxtail, Giant damage rating (100=total damage to plant; 0=no damage to plant); for pest or weed control at 62.5 g/ha: 62.5 g ai/ha, 100=total damage to plant, 0=no damage to plant, read-out: Foxtail, Giant damage rating; for pest or weed control at 250 g/ha: 250 g ai/ha
Outline: as §2

| SMILES | pest or weed control at 15.625 g/ha [1] | pest or weed control at 62.5 g/ha [1] | pest or weed control at 250 g/ha [1] | pest or weed control at 15.625 g/ha [2] | pest or weed control at 62.5 g/ha [2] | pest or weed control at 250 g/ha [2] | plant injury at 15.625 g/ha (corn (Zea mays) [3]) | plant injury at 62.5 g/ha (corn (Zea mays) [3]) | plant injury at 250 g/ha (corn (Zea mays) [3]) | pest or weed control at 15.625 g/ha [4] | pest or weed control at 62.5 g/ha [4] | pest or weed control at 250 g/ha [4] | pest or weed control at 15.625 g/ha [5] | pest or weed control at 62.5 g/ha [5] | pest or weed control at 250 g/ha [5] | pest or weed control at 15.625 g/ha [6] | pest or weed control at 62.5 g/ha [6] | pest or weed control at 15.625 g/ha [7] | pest or weed control at 62.5 g/ha [7] | pest or weed control at 250 g/ha [7] | other results |
| --- | --- | --- | --- | --- | --- | --- | --- | --- | --- | --- | --- | --- | --- | --- | --- | --- | --- | --- | --- | --- | --- |
| CN1CC(c2ccc(Cl)c([N+](=O)[O-])c2)C(C(=O)Nc2cccc(F)c2F)C1=O (centres unmarked) [Compound 1685] | 40% | 50% | 70% | 10% | 30% | 60% | 10% | 40% | 70% | 30% | 60% | 80% | 40% | 30% | 70% | 70% | 70% | 0% | 10% | 60% | pest or weed control at 250 g/ha [6]: 80%; pest or weed control at 15.625 g/ha [8]: 10%; pest or weed control at 62.5 g/ha [8]: 10%; pest or weed control at 250 g/ha [8]: 30%; plant injury at 15.625 g/ha (corn (Zea mays) [9]): 0%; plant injury at 62.5 g/ha (corn (Zea mays) [9]): 0%; plant injury at 250 g/ha (corn (Zea mays) [9]): 60%; pest or weed control at 15.625 g/ha [10]: 30%; pest or weed control at 62.5 g/ha [10]: 70%; pest or weed control at 250 g/ha [10]: 80%; pest or weed control at 15.625 g/ha [11]: 10%; pest or weed control at 62.5 g/ha [11]: 20%; pest or weed control at 250 g/ha [11]: 30%; pest or weed control at 15.625 g/ha [12]: 40%; pest or weed control at 62.5 g/ha [12]: 70%; pest or weed control at 250 g/ha [12]: 90% |
| Cc1cc(C#N)cc(C2CN(C)C(=O)C2C(=O)Nc2cccc(F)c2F)c1 (centres unmarked) [Compound 1691] | 0% | 0% | 0% | 0% | 10% | 20% | 0% | 0% | 70% | 30% | 70% | 70% | 0% | 60% | 30% | 60% | 80% | 0% | 20% | 30% | pest or weed control at 15.625 g/ha [8]: 0%; pest or weed control at 62.5 g/ha [8]: 40%; pest or weed control at 250 g/ha [8]: 60%; plant injury at 15.625 g/ha (corn (Zea mays) [9]): 0%; plant injury at 62.5 g/ha (corn (Zea mays) [9]): 20%; plant injury at 250 g/ha (corn (Zea mays) [9]): 80%; pest or weed control at 15.625 g/ha [10]: 20%; pest or weed control at 62.5 g/ha [10]: 70%; pest or weed control at 250 g/ha [10]: 80%; pest or weed control at 15.625 g/ha [11]: 0%; pest or weed control at 62.5 g/ha [11]: 20%; pest or weed control at 250 g/ha [11]: 50%; pest or weed control at 15.625 g/ha [12]: 60%; pest or weed control at 62.5 g/ha [12]: 90%; pest or weed control at 250 g/ha [12]: 90% |
| CN1CC(c2cc(C#N)cc(OC(F)(F)F)c2)C(C(=O)Nc2cccc(F)c2F)C1=O (centres unmarked) [Compound 1694] | 0% | 0% | 0% | 0% | 0% | 0% | 0% | 0% | 0% | 0% | 0% | 0% | 0% | 0% | 0% | 0% | 0% | 0% | 0% | 0% | pest or weed control at 250 g/ha [6]: 0%; pest or weed control at 15.625 g/ha [8]: 0%; pest or weed control at 62.5 g/ha [8]: 0%; pest or weed control at 250 g/ha [8]: 0%; plant injury at 15.625 g/ha (corn (Zea mays) [9]): 0%; plant injury at 62.5 g/ha (corn (Zea mays) [9]): 0%; plant injury at 250 g/ha (corn (Zea mays) [9]): 0%; pest or weed control at 15.625 g/ha [10]: 0%; pest or weed control at 62.5 g/ha [10]: 0%; pest or weed control at 250 g/ha [10]: 0%; pest or weed control at 15.625 g/ha [11]: 0%; pest or weed control at 62.5 g/ha [11]: 0%; pest or weed control at 250 g/ha [11]: 0%; pest or weed control at 15.625 g/ha [12]: 0%; pest or weed control at 62.5 g/ha [12]: 0%; pest or weed control at 250 g/ha [12]: 0% |
